Laboratory results published in US20250195602A1, “Compositions and Methods for Treating Neuropathy” (Creative Bio-Peptides, Inc., priority 2021, published 2025).
Read-outs that look alike come from different tables or passages of the source.

What was measured:
[1] = Clinical observations and body weights over seven days after RAP-103 dosing (acute toxicity); type: in vivo, Rhesus macaques; Macaca mulatta
[2] = Pharmacokinetics and brain entry of RAP-103 in guinea pigs (oral gavage and IV); type: in vivo
[3] = Pharmacokinetics and brain entry of RAP-103 in rats (oral gavage and IV); type: in vivo
[4] = Pharmacokinetics of RAP-103 in non-human primates (plasma levels, bioavailability); type: in vivo, Rhesus macaques; Macaca mulatta; conditions: for bioavailability: rhesus monkey, in vivo
Experimental: In non-human primates (rhesus monkeys) RAP-103 was dosed once on Day 1 by intravenous bolus injection at 1 mg/kg and plasma levels determined. […] Drug in plasma after a single IV dose (1 mg/Kg) was still measurable at anticipated therapeutic levels 96 hrs. post-dose in non-human primates as shown in FIG. 2B.

[5] = tested on: chemotherapy induced peripheral neuropathy (CIPN) caused by paclitaxel
Experimental: Morphine was used as a positive control for pain response.
The ability of RAP-103 was tested to treat chemotherapy induced peripheral neuropathy (CIPN) caused by paclitaxel in rodents. This assay uses the chemotherapeutic agent paclitaxel to elicit a chronic pain state. Once established, pain in these animals can persist for weeks.
Rats were given i.p. injections of paclitaxel (2 mg/kg) on days 0, 2, 4, and 6 to induce a chronic pain state. […] On day 21 morphine (2 mg/Kg) was also administered to animals as a positive control. Pain was assessed 60 minutes after morphine or RAP-103 administration on the left rear paw on day 21 with a series of von Frey filaments with logarithmically incrementing stiffness applied perpendicular to the midplantar region of the hind paw. The paw withdrawal force (grams, g) threshold was determined.

[6] = IV or oral gavage dosing, FIG. 2A

C[C@H](O)[C@@H](N)C(=O)N[C@@H](C(=O)N[C@H](CC(N)=O)C(=O)N[C@H](Cc1ccc(O)cc1)C(=O)N[C@@H](C(=O)O)[C@H](C)O)[C@H](C)O [RAP-103, All D-peptide-Thr-Thr-Asn-Tyr-Thr]
Acute toxicity [1]: no acute toxicity
RAP-103-related changes in body weights [1]: no RAP-103-related changes
RAP-103-related changes in clinical observations [1]: no RAP-103-related changes
Brain level compared to plasma levels [2]: preferentially enters the brain
Brain entry by oral compared to IV dosing ([2]; FIG. 2A): preferentially entered the brain by oral
Brain entry [2, 6]: quickly entered the brain
Persistence at therapeutic levels in brain [2, 6]: at least 24 hrs
Brain level compared to plasma levels [3]: preferentially enters the brain
Brain entry by oral compared to IV dosing ([3]; FIG. 2A): preferentially entered the brain by oral
Brain entry [3, 6]: quickly entered the brain
Persistence at therapeutic levels in brain [3, 6]: at least 24 hrs
Brain entry ([4]; non-human primates (Rhesus macaque), oral and IV dosing): quickly entered the brain
Time post-dose at which drug in plasma was still measurable at anticipated therapeutic levels ([4]; non-human primates, single IV dose 1 mg/Kg, FIG. 2B): ≥ 96 h
bioavailability ([4]; 1 mg/kg, female rhesus monkeys, 1 mg/kg dose level, read-out: Absolute bioavailability): 88%
bioavailability ([4]; po, 1 mg/kg, male rhesus monkeys, 1 mg/kg dose level, read-out: Absolute bioavailability): 89%
bioavailability ([4]; po, 1 mg/kg, non-human primates, read-out: Oral bioavailability): 88%
AUC 0-T, male versus female monkeys ([4]; rhesus monkeys, 1 mg/kg): comparable
Cmax, male versus female monkeys ([4]; rhesus monkeys, 1 mg/kg): comparable
Treatment of paclitaxel induced CIPN compared with standard of care (morphine) ([5]; animal model of CIPN, RAP-103 0.05 mg/kg vs morphine 2 mg/Kg): at least equivalent
Dose lower on a weight basis than morphine at at least equivalent effect ([5]; animal model of paclitaxel induced CIPN): about 40 fold
Paw withdraw threshold compared to vehicle ([5]; rats treated with paclitaxel, FIG. 4): increased paw withdraw threshold
Effect on chronic pain caused by repeated administration of paclitaxel ([5]; rats, 0.05 mg/kg daily i.p. days 17-21 post paclitaxel, assessed 60 minutes after dosing on day 21, FIG. 4): reduced chronic pain
